Data: publication PMC12398837 (Journal of Pharmaceutical Analysis, 2025)
pIC50: −log10 of the molar value. Structures can show the parent of a compound that is named as a salt. Where two headings read alike, the source gives them in different places.

Tests used:
[1] = target: T1, hDAT (Homo sapiens, UniProt Q01959); assay: Neurotransmitter Transporter Uptake Assay Kit, DA reuptake inhibition; assay type: cell-based; settings: Table 1; inhibition of dopamine reuptake, reduction of RFU
T1 construct: expressed in transfected cells; host or cells: HEK-293T (HEK293T), stably transfected
Method: DA uptake activity was measured using a Neurotransmitter Transporter Uptake Assay Kit (Molecular Devices, San Jose, CA, USA). […] 2-[4-(2-hydroxyethyl)-1-piperazinyl] ethanesulfonic acid (HEPES) buffer solution (150 mM NaCl, 5 mM KCl, 10 mM glucose, 2 mM CaCl2, 1 mM MgCl2, 10 mM HEPES, pH 7.4) was used to wash cells three times before the experiment. Cells in the experimental group were treated with six different compounds. After 15 min, the dye solution was added and the fluorescence intensity was measured for 30 min in the 520 nm range with excitation at 440 nm. The inhibition percentages were calculated using the end point measurements at 30 min. The four-parameter logistic nonlinear regression model was used to determine the half maximal inhibitory concentration (IC50) values.
The DA reuptake inhibitory activities of the six repurposed drugs were evaluated using the Neurotransmitter Transporter Uptake Assay Kit through dose-response assays. This assay employs a novel fluorescent indicator dye designed to mimic neurotransmitters, along with a masking dye to quench extracellular fluorescence, enabling precise measurement of transporter-mediated uptake activity.

[2] = cited from earlier work

T1 sequence (Q01959 whole entry): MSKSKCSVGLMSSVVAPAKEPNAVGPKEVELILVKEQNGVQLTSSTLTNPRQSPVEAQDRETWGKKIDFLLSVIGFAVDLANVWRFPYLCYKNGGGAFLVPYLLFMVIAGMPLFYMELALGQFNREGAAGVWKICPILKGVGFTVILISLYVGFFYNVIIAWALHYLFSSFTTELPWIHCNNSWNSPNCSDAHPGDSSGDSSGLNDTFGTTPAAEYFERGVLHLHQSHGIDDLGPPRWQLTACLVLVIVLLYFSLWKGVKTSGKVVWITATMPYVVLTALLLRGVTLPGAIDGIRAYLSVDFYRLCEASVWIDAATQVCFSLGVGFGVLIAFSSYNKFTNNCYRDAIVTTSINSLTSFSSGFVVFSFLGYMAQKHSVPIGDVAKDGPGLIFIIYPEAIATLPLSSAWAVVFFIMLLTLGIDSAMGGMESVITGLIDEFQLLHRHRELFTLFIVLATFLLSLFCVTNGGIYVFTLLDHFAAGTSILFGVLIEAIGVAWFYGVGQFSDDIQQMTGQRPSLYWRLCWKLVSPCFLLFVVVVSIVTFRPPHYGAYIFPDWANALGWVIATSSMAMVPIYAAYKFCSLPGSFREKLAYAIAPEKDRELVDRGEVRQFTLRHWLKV

Compound	pIC50 [1]	CNS and cardiac toxicity ([2]; previous research)	metabolism ([2]; restricts application to peripheral nerve blockade)	CNS and cardiac toxicity ([2]; particularly under acidosis and hyperkalemia)
CCCN1CCCC[C@H]1C(=O)Nc1c(C)cccc1C [Compound 4, Ropivacaine]	6.12	mild CNS and cardiac toxicity		
Cc1cccc(C)c1NC(=O)C1CCCCN1C (stereo not drawn) [Compound 14, Mepivacaine hydrochloride]	6.27		rapid metabolism	
CCCCN1CCCC[C@H]1C(=O)Nc1c(C)cccc1C [Compound 19, Levobupivacaine]	5.92			mild CNS and cardiac toxicity
